Data on two compounds can be found in ChEMBL document CHEMBL1125959, “Synthesis and DNA binding properties of an amidine-linked and phenyl-containing analogue of distamycin A” (Bioorg Med Chem Lett, 1991).

Assay [1] deals with Nucleic Acid. As to the kind of experiment: The apparent DNA binding constant to bind with T4 DNA was determined by ethidium displacement assay. The format is nucleic-acid assay.
The test system of assay [2] is Nucleic Acid. As to the kind of experiment: The apparent DNA binding constant to bind with calf thymus DNA was determined by ethidium displacement assay. The following applies: Bos taurus. The format is nucleic-acid assay.

As for `CN(C)CC/N=C(\N)c1cccc(NC(=O)c2cccc(NC=O)c2)c1`, the K app stood at 120000 M⁻¹ in assay [1] and 65000 M⁻¹ in assay [2].

`Cn1cc(NC(=O)c2cc(NC(=O)c3cc(NC=O)cn3C)cn2C)cc1C(=O)NCCC(=N)N`: the K app in assay [2] is 770000 M⁻¹.
